Tested on: liver MPS NASH model (PHH, KC and HSC co-cultures)
Assay: Cue study: secreted cytokines and chemokines (Luminex) with varying NPC number and added cues (Fig 5a, 5b)
Assay type: cell-based, human
Conditions: Fat media + cue
Description: There is only limited understanding of the pathogenic drivers of NASH and their interaction, principally due to a lack of translational models that are amenable to detailed molecular analysis[2],[34]. Here, a systems biology ‘cue-signal-analysis’ paradigm[35],[36] was utilised to produce large factorial datasets to enable the identification of molecular pathways of importance. […] To create varying set ups of the NASH microtissues we created hepatocyte microtissues in the MPS with high numbers of NPC (60,000 KC and HSC—equivalent to 10% of microtissue population) and low numbers of NPCs (6000 KC and HSC—equivalent to 1% of microtissue), representing physiological and non-physiological cell ratios respectively. Next, we took these different microtissues and cultured them in media with or without FFA. Finally, we supplemented the media with lipopolysaccharide (LPS), TGFβ, fructose or cholesterol either as single ‘cues’, in pairs or all together (Fig. 4a). ‘Cues’ were selected for clinical association with NASH. LPS, is a pleiotropic inflammatory molecule, it is proposed to reach the liver via the hepatic portal vein after release from the gastrointestinal tract, contributing to disease progression[37],[38]. TGFβ has been extensively studied in relation to fibrosis due to its regulation of genes controlling collagen and matrix-modifying enzymes. Fructose is a key substrate for de-novo lipogenesis, a process that has been identified as a key event in lipid accumulation within NAFLD patients. Finally, cholesterol accumulation has also been linked to NASH disease aetiology.
Assessment of gene expression changes was supplemented by assessment of the secretome produced by NASH microtissues in the MPS after exposure to the various cues. Increased pro-inflammatory cytokine secretion is a defining characteristic in NASH patients, so we conducted a Luminex cytokine array covering 42 different biomarkers, cytokines and chemokines secreted into the culture media of the different microtissues at multiple time points. […]

TGF-β
EGF relative expression (z-transformation) (Day 6): -0.6947
Eotaxin relative expression (z-transformation) (Day 6): -0.9288
FGF-2 relative expression (z-transformation) (Day 6): 0.0308
Fit-3L relative expression (z-transformation) (Day 6): -0.07468
Fractalkine relative expression (z-transformation) (Day 6): -0.6368
G-CSF relative expression (z-transformation) (Day 6): 0.1243
GRO relative expression (z-transformation) (Day 6): -0.2928
IFN-a2 relative expression (z-transformation) (Day 6): 0.07826
IL-1RA relative expression (z-transformation) (Day 6): -0.2716
IL-4 relative expression (z-transformation) (Day 6): -0.7382
IL-6 relative expression (z-transformation) (Day 6): 0.4237
IL-7 relative expression (z-transformation) (Day 6): -0.09812
IL-8 relative expression (z-transformation) (Day 6): 0.2731
IL-15 relative expression (z-transformation) (Day 6): 0.3864
IP-10 relative expression (z-transformation) (Day 6): -0.5991
MCP-1 relative expression (z-transformation) (Day 6): -0.1254
MCP-3 relative expression (z-transformation) (Day 6): -0.3354
MDC relative expression (z-transformation) (Day 6): 1.089
MIP-1a relative expression (z-transformation) (Day 6): -0.3189
MIP-1b relative expression (z-transformation) (Day 6): -0.5904
TNFa relative expression (z-transformation) (Day 6): -0.3323
VEGF relative expression (z-transformation) (Day 6): 0.1644
EGF relative expression (z-transformation) (Day 11): 0.4971
Eotaxin relative expression (z-transformation) (Day 11): -0.7902
FGF-2 relative expression (z-transformation) (Day 11): 1.282
Fit-3L relative expression (z-transformation) (Day 11): -1.046
Fractalkine relative expression (z-transformation) (Day 11): 0.2445
G-CSF relative expression (z-transformation) (Day 11): 1.379
GM-CSF relative expression (z-transformation) (Day 11): -0.7569
GRO relative expression (z-transformation) (Day 11): -0.05931
IFN-a2 relative expression (z-transformation) (Day 11): -0.7423
IL-1RA relative expression (z-transformation) (Day 11): 1.044
IL-4 relative expression (z-transformation) (Day 11): 2.047
IL-6 relative expression (z-transformation) (Day 11): -0.4878
IL-7 relative expression (z-transformation) (Day 11): 0.613
IL-8 relative expression (z-transformation) (Day 11): 1.674
IL-15 relative expression (z-transformation) (Day 11): 1.1283
IP-10 relative expression (z-transformation) (Day 11): -0.5014
MCP-1 relative expression (z-transformation) (Day 11): -0.1617
MCP-3 relative expression (z-transformation) (Day 11): 1.036
MDC relative expression (z-transformation) (Day 11): -0.8939
MIP-1a relative expression (z-transformation) (Day 11): -0.2467
MIP-1b relative expression (z-transformation) (Day 11): -0.2666
TNFa relative expression (z-transformation) (Day 11): -0.5851
VEGF relative expression (z-transformation) (Day 11): 0.04572
EGF relative expression (z-transformation) (Day 14): -0.7709
Eotaxin relative expression (z-transformation) (Day 14): -0.8142
FGF-2 relative expression (z-transformation) (Day 14): -0.6405
Fit-3L relative expression (z-transformation) (Day 14): -1.202
Fractalkine relative expression (z-transformation) (Day 14): -0.4453
G-CSF relative expression (z-transformation) (Day 14): 2.694
GM-CSF relative expression (z-transformation) (Day 14): -0.9022
GRO relative expression (z-transformation) (Day 14): -0.07849
IFN-a2 relative expression (z-transformation) (Day 14): 0.3354
IL-1RA relative expression (z-transformation) (Day 14): 0.4791
IL-4 relative expression (z-transformation) (Day 14): 0.3542
IL-6 relative expression (z-transformation) (Day 14): -0.7405
IL-7 relative expression (z-transformation) (Day 14): -0.2291
IL-8 relative expression (z-transformation) (Day 14): 1.963
IL-15 relative expression (z-transformation) (Day 14): 1.049
IP-10 relative expression (z-transformation) (Day 14): -0.2731
MCP-1 relative expression (z-transformation) (Day 14): -0.3727
MCP-3 relative expression (z-transformation) (Day 14): 1.8775
MDC relative expression (z-transformation) (Day 14): -0.4908
MIP-1a relative expression (z-transformation) (Day 14): -0.1191
MIP-1b relative expression (z-transformation) (Day 14): -0.282
TNFa relative expression (z-transformation) (Day 14): -0.5429
VEGF relative expression (z-transformation) (Day 14): -0.6644

— article PMC8443589, “Modelling human liver fibrosis in the context of non-alcoholic steatohepatitis using a microphysiological system” (Communications Biology, 2021)
